The values below come from ChEMBL document CHEMBL1201862, “PubChem BioAssay data set” (2004).

The EC50 is the concentration giving half of the maximal effect. As a reminder, the AC50 is the concentration at which the activity in the assay is half-maximal.

The structures appear in SMILES notation. Calls of active or inactive are those of the source.

Assay [1] concerns the target T1, RNA-binding protein pos-1 (Caenorhabditis elegans, UniProt G5EF15).
T1 sequence (G5EF15 whole entry): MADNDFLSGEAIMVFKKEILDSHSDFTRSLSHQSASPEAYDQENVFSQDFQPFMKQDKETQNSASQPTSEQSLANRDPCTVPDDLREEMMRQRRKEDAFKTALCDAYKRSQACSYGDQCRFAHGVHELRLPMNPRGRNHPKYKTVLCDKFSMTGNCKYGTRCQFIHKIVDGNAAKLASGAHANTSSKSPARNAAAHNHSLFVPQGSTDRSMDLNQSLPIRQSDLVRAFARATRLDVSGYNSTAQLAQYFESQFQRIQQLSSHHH
Put plainly: inhibitors of POS-1/mex-3 RNA binding, dose response, biochemical, fluorescence polarization (AID 1964).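 Also: purified POS-1 fused to maltose binding protein made in E. coli; potency of compounds blocking POS-1 binding to fluorescent RNA.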 A general note: Fluorescence polarisation rises when a labelled molecule tumbles more slowly, as on binding a larger partner.

Assay [2] deals with T2, Zinc finger protein mex-5 (Caenorhabditis elegans, UniProt Q9XUB2).
T2 sequence (Q9XUB2 whole entry): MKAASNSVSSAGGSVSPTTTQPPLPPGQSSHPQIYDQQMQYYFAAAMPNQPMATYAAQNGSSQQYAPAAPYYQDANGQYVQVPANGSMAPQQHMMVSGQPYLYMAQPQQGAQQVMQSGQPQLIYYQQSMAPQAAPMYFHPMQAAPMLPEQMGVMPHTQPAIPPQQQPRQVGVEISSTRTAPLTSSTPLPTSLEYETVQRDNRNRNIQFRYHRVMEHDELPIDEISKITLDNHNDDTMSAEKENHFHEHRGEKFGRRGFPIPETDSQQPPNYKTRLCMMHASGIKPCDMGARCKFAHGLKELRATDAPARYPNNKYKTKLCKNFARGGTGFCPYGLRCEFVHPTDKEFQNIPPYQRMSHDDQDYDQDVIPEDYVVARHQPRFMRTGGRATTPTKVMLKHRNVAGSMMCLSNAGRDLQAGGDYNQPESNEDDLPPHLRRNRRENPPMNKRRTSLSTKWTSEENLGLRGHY
Put plainly: MEX-5/TCR-2 RNA interaction inhibitors, dose response, biochemical, C. elegans, fluorescence polarization (AID 1960).

Assay [3] concerns the target T3, Rac GTPase-activating protein 1 (Homo sapiens, UniProt Q9H0H5).
T3 sequence (Q9H0H5 whole entry): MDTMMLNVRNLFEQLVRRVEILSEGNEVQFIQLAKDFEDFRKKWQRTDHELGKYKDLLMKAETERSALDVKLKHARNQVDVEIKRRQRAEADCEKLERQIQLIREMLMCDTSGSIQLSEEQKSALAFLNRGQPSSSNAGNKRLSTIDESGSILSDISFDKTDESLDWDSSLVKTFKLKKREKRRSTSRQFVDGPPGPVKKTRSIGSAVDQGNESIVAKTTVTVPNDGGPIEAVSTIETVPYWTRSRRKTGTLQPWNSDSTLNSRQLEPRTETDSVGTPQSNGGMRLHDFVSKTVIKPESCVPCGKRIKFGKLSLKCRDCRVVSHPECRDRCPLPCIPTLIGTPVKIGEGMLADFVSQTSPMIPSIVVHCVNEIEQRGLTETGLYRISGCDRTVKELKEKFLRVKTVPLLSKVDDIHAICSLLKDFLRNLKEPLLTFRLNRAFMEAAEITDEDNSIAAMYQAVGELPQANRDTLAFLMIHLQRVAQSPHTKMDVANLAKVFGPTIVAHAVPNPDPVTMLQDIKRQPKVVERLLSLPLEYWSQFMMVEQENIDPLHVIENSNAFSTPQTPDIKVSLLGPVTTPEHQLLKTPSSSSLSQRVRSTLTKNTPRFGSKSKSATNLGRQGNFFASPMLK
Briefly: MgcRacGAP GTPase-activating activity inhibitors, confirmation, biochemical, ADP Hunter fluorescence, primary and confirmatory (AID 624330). The assay is classed as functional.

The target of another assay is Genome polyprotein (dengue virus type 2, UniProt P29990). Briefly: Dengue-2 NS5 methyltransferase inhibitors, primary screen, biochemical, confirmation dose response (AID 588689). The assay is classed as functional.
Sequence of Genome polyprotein (P29990 2492-3391 limits assumed): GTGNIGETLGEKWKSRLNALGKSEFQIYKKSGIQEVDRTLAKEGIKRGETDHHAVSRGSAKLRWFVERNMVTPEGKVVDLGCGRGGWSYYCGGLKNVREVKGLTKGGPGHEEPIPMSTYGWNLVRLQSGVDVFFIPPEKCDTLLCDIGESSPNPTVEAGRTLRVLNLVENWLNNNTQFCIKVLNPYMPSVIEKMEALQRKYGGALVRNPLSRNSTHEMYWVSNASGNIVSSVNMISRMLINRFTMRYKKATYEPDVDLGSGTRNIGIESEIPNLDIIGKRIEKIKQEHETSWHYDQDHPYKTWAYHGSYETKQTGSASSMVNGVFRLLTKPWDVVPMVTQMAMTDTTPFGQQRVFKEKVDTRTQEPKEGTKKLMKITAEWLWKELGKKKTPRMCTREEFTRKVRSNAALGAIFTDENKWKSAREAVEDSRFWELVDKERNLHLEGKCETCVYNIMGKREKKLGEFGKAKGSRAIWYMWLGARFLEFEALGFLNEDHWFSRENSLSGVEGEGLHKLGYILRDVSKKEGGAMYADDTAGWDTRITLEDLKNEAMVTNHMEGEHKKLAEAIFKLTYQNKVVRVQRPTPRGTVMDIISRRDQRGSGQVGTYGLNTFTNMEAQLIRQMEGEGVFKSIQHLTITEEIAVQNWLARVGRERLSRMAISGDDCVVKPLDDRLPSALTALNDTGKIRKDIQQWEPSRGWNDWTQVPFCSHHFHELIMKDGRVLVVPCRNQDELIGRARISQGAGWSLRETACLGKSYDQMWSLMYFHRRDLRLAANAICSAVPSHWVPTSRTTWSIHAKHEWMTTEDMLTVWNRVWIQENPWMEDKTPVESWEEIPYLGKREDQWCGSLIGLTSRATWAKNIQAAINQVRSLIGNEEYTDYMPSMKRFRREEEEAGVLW
Assay [4] concerns the target T4, Polyadenylate-binding protein 1 (Homo sapiens, UniProt P11940). Briefly: PABP1 MLLE–PAM2 interaction inhibitors, dose response, miRNA deadenylation inhibitor project, biochemical, fluorescence polarization, Cy5-PAM2 peptide, secondary (AID 602260). The assay is classed as functional. As to conditions: read-out: IC50_Mean.
The target of the next assay is T5, Aminopeptidase N (Plasmodium falciparum FcB1/Columbia, UniProt O96935).
T5 sequence (O96935 whole entry): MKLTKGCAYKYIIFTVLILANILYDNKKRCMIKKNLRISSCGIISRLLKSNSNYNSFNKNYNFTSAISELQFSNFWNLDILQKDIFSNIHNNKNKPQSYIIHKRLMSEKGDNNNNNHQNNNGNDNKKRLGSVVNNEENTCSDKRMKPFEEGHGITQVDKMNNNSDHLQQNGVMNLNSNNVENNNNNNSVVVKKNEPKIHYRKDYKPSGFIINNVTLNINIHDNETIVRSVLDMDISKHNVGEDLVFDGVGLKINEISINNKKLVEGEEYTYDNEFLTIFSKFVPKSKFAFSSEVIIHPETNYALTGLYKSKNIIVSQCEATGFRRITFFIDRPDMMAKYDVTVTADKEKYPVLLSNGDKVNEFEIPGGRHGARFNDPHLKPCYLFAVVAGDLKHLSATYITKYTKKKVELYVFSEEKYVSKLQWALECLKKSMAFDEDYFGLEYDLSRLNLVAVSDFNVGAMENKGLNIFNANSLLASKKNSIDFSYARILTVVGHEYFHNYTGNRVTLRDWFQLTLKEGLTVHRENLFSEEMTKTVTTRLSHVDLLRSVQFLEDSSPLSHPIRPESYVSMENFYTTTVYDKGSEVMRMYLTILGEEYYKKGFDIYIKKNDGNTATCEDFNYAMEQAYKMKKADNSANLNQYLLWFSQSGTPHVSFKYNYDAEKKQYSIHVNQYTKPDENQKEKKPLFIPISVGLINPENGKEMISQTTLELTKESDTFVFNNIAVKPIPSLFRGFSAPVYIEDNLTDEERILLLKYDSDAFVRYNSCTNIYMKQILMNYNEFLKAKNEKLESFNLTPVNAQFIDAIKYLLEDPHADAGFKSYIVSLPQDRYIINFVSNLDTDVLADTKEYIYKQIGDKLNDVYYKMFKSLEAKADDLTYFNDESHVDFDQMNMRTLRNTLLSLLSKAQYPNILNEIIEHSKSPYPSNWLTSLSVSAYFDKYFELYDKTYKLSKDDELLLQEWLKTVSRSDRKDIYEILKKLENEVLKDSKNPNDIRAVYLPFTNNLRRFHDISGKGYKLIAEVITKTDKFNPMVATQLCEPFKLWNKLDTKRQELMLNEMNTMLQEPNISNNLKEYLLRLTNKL
Put plainly: P. falciparum M1AAP inhibitors, biochemical, fluorogenic H-Leu-NHMec substrate, 1536-well (AID 1445). The arrangement: species or system Plasmodium falciparum 3D7, 3D7.

The target of assay [5] is T4, Polyadenylate-binding protein 1. Put plainly: PABP1 MLLE–PAM2 binding inhibitor potency, dose response, biochemical, fluorescence polarization, FITC-PAM2 peptide (AID 602259). Particulars: read-out: IC50_Mean. In kind it is functional.
Assay [6] in a line: Luminescence Cell-Based Dose Retest to Confirm Inhibitors of Cancer Stem Cells. [Related pubchem assays (depositor defined):AID2717, AID2721]. Particulars: Homo sapiens. The assay is classed as functional.
For assay [7], the target named is T6, Microphthalmia-associated transcription factor (Homo sapiens, UniProt O75030).
T6 sequence (O75030 whole entry): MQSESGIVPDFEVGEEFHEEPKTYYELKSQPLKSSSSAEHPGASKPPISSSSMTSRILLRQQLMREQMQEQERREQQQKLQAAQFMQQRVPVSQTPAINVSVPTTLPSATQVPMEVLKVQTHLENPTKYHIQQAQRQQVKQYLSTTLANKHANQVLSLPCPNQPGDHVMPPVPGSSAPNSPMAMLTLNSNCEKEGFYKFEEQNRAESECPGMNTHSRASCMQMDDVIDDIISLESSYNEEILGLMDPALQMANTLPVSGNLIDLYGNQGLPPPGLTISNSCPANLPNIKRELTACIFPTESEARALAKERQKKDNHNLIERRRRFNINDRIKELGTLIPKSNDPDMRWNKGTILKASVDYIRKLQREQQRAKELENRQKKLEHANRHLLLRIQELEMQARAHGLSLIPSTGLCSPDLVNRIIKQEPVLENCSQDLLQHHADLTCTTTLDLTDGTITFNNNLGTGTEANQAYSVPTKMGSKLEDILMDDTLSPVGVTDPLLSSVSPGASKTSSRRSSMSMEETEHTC
Briefly: TRPM1 promoter luciferase signal decrease, dose response, MITF inhibitor project, cell-based, SK-MEL-5, cherry-picked, set 3 (AID 493073).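 Also: SK-MEL-5 melanoma cells with luciferase driven by the MITF target TRPM1 promoter.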 In kind it is functional.

In another assay the target is Cytochrome P450 2C19 (Homo sapiens, UniProt P33261). Put plainly: Cytochrome panel assay with activity outcomes. Panel member name: p450-cyp2c19 Compounds with AC50 equal or less than 10 uM are considered active. In kind it is functional. As to conditions: read-out: AC50.
The target in the next assay is Cytochrome P450 2C9 (Homo sapiens, UniProt P11712).
In assay [8] the target is T7, Voltage-gated N-type calcium channel alpha-1B subunit/Amyloid beta A4 precursor protein-binding family A member 1 (Homo sapiens, UniProt Q00975+Q02410). In kind it is protein assay.
T7 sequence (Q00975 whole entry): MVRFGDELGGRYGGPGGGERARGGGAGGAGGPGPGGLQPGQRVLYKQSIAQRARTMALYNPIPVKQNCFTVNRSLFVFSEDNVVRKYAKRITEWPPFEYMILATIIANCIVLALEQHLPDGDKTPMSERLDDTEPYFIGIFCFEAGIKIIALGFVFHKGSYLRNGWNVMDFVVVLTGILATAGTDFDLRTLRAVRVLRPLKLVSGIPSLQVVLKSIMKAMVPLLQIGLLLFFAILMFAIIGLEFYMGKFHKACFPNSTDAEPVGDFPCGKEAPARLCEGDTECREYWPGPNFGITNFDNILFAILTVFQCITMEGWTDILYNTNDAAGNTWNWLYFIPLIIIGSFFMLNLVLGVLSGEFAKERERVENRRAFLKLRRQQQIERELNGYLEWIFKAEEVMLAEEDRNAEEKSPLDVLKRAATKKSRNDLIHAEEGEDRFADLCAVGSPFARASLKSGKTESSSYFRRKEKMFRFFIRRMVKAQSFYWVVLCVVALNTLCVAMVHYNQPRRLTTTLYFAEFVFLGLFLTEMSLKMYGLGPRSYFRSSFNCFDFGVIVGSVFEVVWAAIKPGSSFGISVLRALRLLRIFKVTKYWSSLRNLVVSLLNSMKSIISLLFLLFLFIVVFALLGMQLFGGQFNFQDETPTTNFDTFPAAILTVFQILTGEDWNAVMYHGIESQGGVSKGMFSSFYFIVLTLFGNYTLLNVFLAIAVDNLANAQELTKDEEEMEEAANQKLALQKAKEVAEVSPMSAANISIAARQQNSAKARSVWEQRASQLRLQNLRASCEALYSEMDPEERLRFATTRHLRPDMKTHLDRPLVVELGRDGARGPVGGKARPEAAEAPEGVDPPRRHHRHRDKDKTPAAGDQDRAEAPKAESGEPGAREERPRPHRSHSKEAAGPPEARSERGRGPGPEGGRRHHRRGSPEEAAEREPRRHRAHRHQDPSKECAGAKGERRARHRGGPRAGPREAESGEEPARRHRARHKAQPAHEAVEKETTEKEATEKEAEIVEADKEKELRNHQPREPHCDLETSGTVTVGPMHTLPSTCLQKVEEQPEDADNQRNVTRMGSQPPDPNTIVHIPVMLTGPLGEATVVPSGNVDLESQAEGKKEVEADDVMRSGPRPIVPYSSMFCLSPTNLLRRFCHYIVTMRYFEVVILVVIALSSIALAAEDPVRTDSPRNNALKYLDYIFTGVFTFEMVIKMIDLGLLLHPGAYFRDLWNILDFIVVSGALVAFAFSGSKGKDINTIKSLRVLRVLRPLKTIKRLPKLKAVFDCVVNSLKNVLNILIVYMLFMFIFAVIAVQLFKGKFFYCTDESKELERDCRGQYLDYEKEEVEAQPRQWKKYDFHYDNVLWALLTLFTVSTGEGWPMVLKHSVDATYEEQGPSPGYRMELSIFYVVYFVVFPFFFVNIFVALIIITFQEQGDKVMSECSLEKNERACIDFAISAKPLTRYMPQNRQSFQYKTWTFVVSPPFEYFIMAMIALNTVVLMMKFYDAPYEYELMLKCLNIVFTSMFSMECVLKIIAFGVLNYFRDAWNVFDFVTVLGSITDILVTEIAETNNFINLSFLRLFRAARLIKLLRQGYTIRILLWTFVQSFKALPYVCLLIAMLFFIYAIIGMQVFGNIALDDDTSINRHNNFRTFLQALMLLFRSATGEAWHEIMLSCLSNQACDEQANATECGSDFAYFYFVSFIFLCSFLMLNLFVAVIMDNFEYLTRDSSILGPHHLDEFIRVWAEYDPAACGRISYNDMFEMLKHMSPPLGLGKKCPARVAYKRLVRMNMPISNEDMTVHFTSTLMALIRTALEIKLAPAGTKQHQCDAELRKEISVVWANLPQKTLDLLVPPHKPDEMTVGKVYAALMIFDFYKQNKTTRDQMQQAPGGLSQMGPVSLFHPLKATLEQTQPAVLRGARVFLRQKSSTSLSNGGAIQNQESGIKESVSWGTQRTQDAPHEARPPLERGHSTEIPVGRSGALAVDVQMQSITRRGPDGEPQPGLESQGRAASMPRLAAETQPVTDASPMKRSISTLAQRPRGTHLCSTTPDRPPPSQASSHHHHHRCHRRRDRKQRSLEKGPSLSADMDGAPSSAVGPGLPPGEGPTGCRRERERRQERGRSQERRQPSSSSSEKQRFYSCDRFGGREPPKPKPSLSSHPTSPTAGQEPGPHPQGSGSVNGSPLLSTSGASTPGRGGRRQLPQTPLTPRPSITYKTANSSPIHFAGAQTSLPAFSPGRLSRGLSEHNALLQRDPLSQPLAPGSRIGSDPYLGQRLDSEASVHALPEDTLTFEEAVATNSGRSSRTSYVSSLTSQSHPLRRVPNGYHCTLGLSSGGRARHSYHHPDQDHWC
T7 sequence (Q02410 whole entry): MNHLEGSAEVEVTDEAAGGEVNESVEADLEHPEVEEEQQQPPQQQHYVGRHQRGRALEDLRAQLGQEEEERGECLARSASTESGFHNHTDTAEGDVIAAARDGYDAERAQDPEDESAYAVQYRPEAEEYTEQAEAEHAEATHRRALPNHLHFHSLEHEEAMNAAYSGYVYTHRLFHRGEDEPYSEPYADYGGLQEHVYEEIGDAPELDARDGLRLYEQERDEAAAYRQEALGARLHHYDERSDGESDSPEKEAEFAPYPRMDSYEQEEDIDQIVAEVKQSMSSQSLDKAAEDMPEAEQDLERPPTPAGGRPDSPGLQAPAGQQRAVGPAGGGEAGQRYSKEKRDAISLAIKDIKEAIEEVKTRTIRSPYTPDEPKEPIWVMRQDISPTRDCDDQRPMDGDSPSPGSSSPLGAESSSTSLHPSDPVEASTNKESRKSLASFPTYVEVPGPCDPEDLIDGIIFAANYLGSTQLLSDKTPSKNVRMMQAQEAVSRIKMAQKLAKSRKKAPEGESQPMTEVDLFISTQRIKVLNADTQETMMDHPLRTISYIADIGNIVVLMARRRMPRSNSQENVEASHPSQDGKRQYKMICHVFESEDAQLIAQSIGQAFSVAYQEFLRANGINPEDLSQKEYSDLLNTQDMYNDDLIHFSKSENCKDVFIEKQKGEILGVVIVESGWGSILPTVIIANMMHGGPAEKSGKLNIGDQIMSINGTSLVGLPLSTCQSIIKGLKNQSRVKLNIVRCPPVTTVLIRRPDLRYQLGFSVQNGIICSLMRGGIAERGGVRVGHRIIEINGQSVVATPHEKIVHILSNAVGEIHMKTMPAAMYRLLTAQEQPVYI
Assay [9] deals with T7, Voltage-gated N-type calcium channel alpha-1B subunit/Amyloid beta A4 precursor protein-binding family A member 1. The assay is classed as protein assay. This is another data set of the same source.
The nature of assay [10]: insulin promoter down-regulators in MIN6 cells, imaging, high-content screening, mouse beta cells (AID 1628). The assay is classed as functional.
Assay [11] can be described thus: cytotoxicity in MIN6 insulinoma cells, dose response, cytotoxicity control, cell-based, mouse insulinoma (AID 2122).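 Also: confirmatory high-throughput counterscreen run to flag cytotoxic compounds; mouse MIN-6 beta cells carrying an insulin promoter eGFP reporter.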 The assay is classed as functional.
Assay [12] concerns the target T8, High affinity choline transporter 1 (Homo sapiens, UniProt Q9GZV3).
T8 sequence (Q9GZV3 whole entry): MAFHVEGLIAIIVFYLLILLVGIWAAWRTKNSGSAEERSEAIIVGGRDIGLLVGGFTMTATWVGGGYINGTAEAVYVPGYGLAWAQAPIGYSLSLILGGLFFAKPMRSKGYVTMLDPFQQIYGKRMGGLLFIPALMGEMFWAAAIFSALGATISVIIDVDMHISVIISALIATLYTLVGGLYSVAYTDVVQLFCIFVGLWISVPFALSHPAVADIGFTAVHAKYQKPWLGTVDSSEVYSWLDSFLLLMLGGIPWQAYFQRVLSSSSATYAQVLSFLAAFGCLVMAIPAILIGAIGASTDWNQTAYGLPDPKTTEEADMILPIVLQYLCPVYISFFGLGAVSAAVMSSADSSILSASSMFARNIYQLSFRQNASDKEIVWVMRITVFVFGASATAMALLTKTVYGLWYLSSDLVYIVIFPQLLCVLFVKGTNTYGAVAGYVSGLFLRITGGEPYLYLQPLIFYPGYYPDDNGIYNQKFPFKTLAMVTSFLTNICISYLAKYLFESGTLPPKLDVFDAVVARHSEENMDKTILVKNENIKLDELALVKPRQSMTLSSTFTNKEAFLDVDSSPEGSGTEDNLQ
Briefly: CHT inhibitors, dose response, cell-based, 5-point CRC, membrane potential dye (AID 504840). The assay is classed as functional.

T4 sequence (P11940 whole entry): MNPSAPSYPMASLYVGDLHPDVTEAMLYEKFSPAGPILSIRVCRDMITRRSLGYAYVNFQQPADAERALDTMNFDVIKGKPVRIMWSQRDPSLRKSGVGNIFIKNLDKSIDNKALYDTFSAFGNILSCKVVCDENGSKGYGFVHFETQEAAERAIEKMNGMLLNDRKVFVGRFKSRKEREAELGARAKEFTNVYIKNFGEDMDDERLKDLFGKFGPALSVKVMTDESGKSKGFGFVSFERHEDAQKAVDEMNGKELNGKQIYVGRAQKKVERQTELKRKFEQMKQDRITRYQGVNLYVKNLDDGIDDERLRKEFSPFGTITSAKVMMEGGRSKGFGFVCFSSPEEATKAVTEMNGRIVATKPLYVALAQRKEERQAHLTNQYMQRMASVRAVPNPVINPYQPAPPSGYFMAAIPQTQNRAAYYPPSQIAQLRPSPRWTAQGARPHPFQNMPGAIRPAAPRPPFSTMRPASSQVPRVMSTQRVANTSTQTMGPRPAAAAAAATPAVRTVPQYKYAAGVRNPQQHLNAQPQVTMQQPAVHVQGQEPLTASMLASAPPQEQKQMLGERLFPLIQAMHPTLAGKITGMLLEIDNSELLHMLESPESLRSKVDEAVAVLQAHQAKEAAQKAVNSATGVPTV

Turning to `CSc1nc(S)c2[nH]c(S)nc2n1`, the 50% effective concentration (EC50) is 5.15 µM (active) in [1] and 4.78 µM (active) in [2]. The IC50 in assay [3] was 32.7 µM (active); at Genome polyprotein, 30.6 µM (active).
In the case of `COc1cc(/C=C2/SC(NS(=O)(=O)c3ccccc3)=NC2=O)c([N+](=O)[O-])cc1OC`, the IC50 in assay [4] was > 66 µM (inactive); at Aminopeptidase N it was 24.1 µM (active); in [5], > 66 µM (inactive); on Genome polyprotein, 45.8 µM (active).
With `Cc1ccc(N2C(=O)NC(=O)/C(=C/C=C/c3ccco3)C2=O)cc1`, the concentration at half-maximal activity (AC50) in [6] is 1.65 µM (active); in assay [7], 5.97 µM (active).
Turning to `COc1ccc(CC(=O)Nc2ccc(-c3nnc(-c4ccccc4)o3)cc2)cc1`, the AC50 on Cytochrome P450 2C19 was 1.26 µM (inconclusive); at Cytochrome P450 2C9, 0.224 µM (inconclusive). Moreover, the results for the IC50 in [8] and in assay [9] were 8.88 µM (active) and > 50 µM (inactive), respectively.
Consider `CC1(C)CC(N2CCCC2)=CC(=[N+]2CCCCC2)C1`, for which the IC50 in assay [10] and in assay [11] was < 0.25 µM (active) throughout.
For the molecule `CCc1ccc(OC(C)C(=O)Nc2ccc(S(=O)(=O)Nc3nccs3)cc2)cc1` (centres undefined), the IC50 in assay [12] was 13.8 µM (active).
As to `O=C(CCl)Nc1cccc(S(=O)(=O)NC2=NCCCCC2)c1`, the AC50 in [7] was 7.85 µM (active).
Take `CCOC(=O)C1=C(C)N=c2s/c(=C/c3cccc([N+](=O)[O-])c3O)c(=O)n2C1c1cc(OC)c(OC)c(OC)c1` (centres undefined): the IC50 in [12] is 13.2 µM (active).
